Article PMC6514909, “Synthesis of New Derivatives of Benzofuran as Potential Anticancer Agents” (Molecules, 2019)

Legend:
[1] = test system: HeLa (human cervix carcinoma) cells; assay: MTT cytotoxicity assay, HeLa; type: cell-based
Procedure: (§1) Fourteen new benzofuran derivatives were tested for their cytotoxic properties in K562, MOLT-4 (leukemia, suspension cells), HeLa (cervix carcinoma, adherent cells), and normal endothelial cells (HUVEC). First, we measured the viability of cells after 48 h incubation with the given compound at the concentration of 100 μM. Next, for compounds that reduced cancer cells survival for more than 50%, we determined IC50 values. Cells that were exposed to 1% DMSO (a vehicle) served as the control with 100% survival. Cells treated with 1 µM staurosporine served as the internal control of the cytotoxicity experiments.
(§2) Human umbilical vein endothelial cells (Life Technologies, Waltham, MA, USA) were cultured (according to the manufacturer instructions) in Medium 200 supplemented with Low Serum Growth Supplement. 1 × 10^4 HUVEC cells were seeded on each well on a 96-well plate (Nunc). The HeLa (human cervix carcinoma) K562 and MOLT-4 (leukemia) cells were cultured in RPMI 1640 medium supplemented with antibiotics and 10% fetal calf serum (HeLa, K562) in a 5% CO2-95% air atmosphere. 7 × 10^3 HeLa, K562, or MOLT-4 cells were seeded on each well on 96-well plate (Nunc). 24 h later cells were treated with the test compounds and then incubated for an additional 48 hours. Stock solutions of test compounds were freshly prepared in DMSO (dimethylsulfoxide). The final concentrations of compounds that were tested in the cell cultures were: 2 × 10^−1, 1 ×10^−1, 5 × 10^−2, 1 × 10^−2, 1 × 10^−3 and 1 × 10^−4 mM. The concentration of DMSO in the cell culture medium was 1%.
(§3) The values of IC50 (the concentration of test compound that is required to reduce the cell survival fraction to 50% of the control) were calculated from dose-response curves and used as a measure of cellular sensitivity to a given treatment.
(§4) The MTT [3-(4,5-dimethylthiazol-2-yl)-2,5-diphenyltetrazolium bromide; Sigma, St. Louis, MO, USA] assay determined the cytotoxicity of all the compounds, as described previously. Briefly, after 24 h or 48 h of incubation with the drug, the cells were treated with the MTT reagent, and incubation was continued for 2 h. MTT-formazan crystals were dissolved in 20% SDS and 50% DMF at pH 4.7 and absorbance was read at 570 and 650 nm on an ELISA-PLATE READER (FLUOstar Omega, BMG LABTECH GmbH, Ortenberg, Germany). As a control (100% viability), cells that were grown in the presence of medium vehicle only with 1% DMSO were used.

K562 (leukemia) cells = assay: MTT cytotoxicity assay, K562; type: cell-based, human; details: initial screening, 100 μM, 48 h
Procedure: as §1, §2, §3, §4

MOLT-4 (leukemia) cells = assay: MTT cytotoxicity assay, MOLT-4; type: cell-based, human
Procedure: as §1, §2, §3, §4

[2] = test system: Human umbilical vein endothelial cells (HUVEC); assay: MTT cytotoxicity assay, HUVEC; type: cell-based
Procedure: as §1, §2, §3, §4

[3] = test system: caspase 3/7 in K562 cells; assay: Apo-ONE Homogeneous Caspase-3/7 Assay in K562 cells; type: cell-based, human; details: compound at 5 × IC50 (staurosporine 1 µM), 18 h, 1% DMSO normalized to 1.0
Procedure: We have measured the activity of caspases 3 and 7 (caspase 3/7), which are markers of programmed cell death. […] The activity of caspase 3/7 was measured using pro-fluorescent peptide substrate.
20 × 10^3 K562 cells were seeded on each well of 96-well plate in RPMI 1640 medium supplemented with 10% fetal calf serum and antibiotics. Cells were grown for 24 h at 37 °C and 5% CO2. The test compounds were dissolved in DMSO and added to the cell culture. The concentration of tested benzo[b]furans in cell culture was 5 × IC50.
Cells treated with 1% DMSO served as a negative control, while cells incubated with staurosporine (a strong inducer of apoptosis) were used as a positive control. Cells were exposed to test compounds for 18 h at 37 °C and 5% CO2. Subsequently, Apo-ONE® Homogeneous Caspase-3/7 Assay (Promega, Madison, WI, USA) measured the activity of caspase 3 and 7, according to the manufacturer’s instructions. Briefly, the cells were lysed and incubated for 1.5 h with profluorescent substrate for caspase 3 and 7. Next, fluorescence was read at an excitation wavelength of 485 nm and emission of 520 nm with FLUOStar Omega plate reader (BMG-Labtech, Ortenberg, Germany).
Figure 5 Activity of caspase 3 and 7 in K562 cells treated with the test benzofurans 1c, 1e, 2d, 3d, or staurosporine for 18 h. Apoptosis was determined by Apo-ONE® Homogeneous Caspase-3/7 Assay (Promega, Madison, WI, USA). Abbreviations: DMSO—K562 cells treated with 1% DMSO. The caspase activation level in cells exposed to 1% DMSO was normalized to 1.0. Mean values +/− SD are shown.

[4] = test system: plasmid DNA (pcDNA3.1 HisC); assay: Digestion of plasmid DNA with BamHI restriction nuclease; type: biochemical; details: 100 µM, overnight 37 °C, then BamHI 3 h; agarose gel
From the text: We hypothesized that a possible explanation of observed cytotoxicity might be due to an interaction of test benzofurans with genomic DNA (e.g., by intercalation). To verify this hypothesis, we investigated whether the test benzofurans have any effect on digestion of a plasmid DNA (pcDNA3.1 HisC) with endonuclease BamH1. pcDNA3.1 HisC contains a unique BamH1 restriction site which allows for plasmid linearization. Plasmid DNA exists in linear, superhelical, and circular forms that differ in electrophoretic mobility (Figure 6 lane 1). Plasmid DNA was converted to a linear form upon digestion with BamH1 (lane 2). […] In the presence of test compounds, pcDNA3.1 HisC was partially digested with Bam H1 restriction enzyme (Figure 6 lanes 4–7). Most of the plasmid DNA was converted to a linear form, however there is a circular form still present.
0.5 μg of plasmid DNA (pcDNAHisC, total length 5.5 kbp) containing a unique BamHI restriction site was dissolved in a 1× BamHI reaction buffer and then incubated overnight at 37 °C with the test compounds or daunorubicin, a strong intercalating agent, which was used as a positive control. The concentration of the test compounds and daunorubicin samples was 100 µM. In the next step, the reaction mixtures were digested with BamHI restriction endonuclease (2 U/μL) for 3 h at 37 °C. The total reaction volume was 10 μL. Products of the reaction were subjected to the 1% agarose gel electrophoresis in TBE buffer. The gel was stained with ethidium bromide and DNA fragments were visualized under a UV lamp (GBox, Syngene, Cambridge, UK).
Figure 6 Digestion of pcDNA3.1HisC (total length 5.5kbp) with BamH1 endonuclease. M—marker DNA; 1—not digested plasmid DNA; 2—plasmid DNA digested with BamH1 (DNA present in linear form); 3—plasmid DNA + daunorubicin + BamH1; 4—plasmid DNA + 1c + BamH1; 5—plasmid DNA + 2d + BamH1; 6—plasmid DNA + 1e + BamH1; and, 7—plasmid DNA + 3d + BamH1.

cancer cell lines = assay: MTT cytotoxicity, cancer cell lines overall; type: cell-based, human; details: compared to lead compounds VIII-X
Procedure: as §1, §2, §3, §4

[5] = test system: healthy endothelial cells (HUVEC); design: method as in PMID 25482722, PMID 30465514; details: previous studies; cited from earlier work
cancer cells = test system: cancer cells; design: method as in PMID 25482722, PMID 30465514; details: previous studies; cited from earlier work
K562 leukemic cell line = test system: K562 leukemic cell line; design: method as in PMID 25482722, PMID 30465514; details: previous studies; cited from earlier work
HL-60 leukemic cell line = test system: HL-60 leukemic cell line; design: method as in PMID 25482722, PMID 30465514; details: previous studies; cited from earlier work
HeLa cancer cells = test system: HeLa cancer cells; design: method as in PMID 25482722, PMID 30465514; details: previous studies; cited from earlier work
[6] = initial screening, 100 μM, 48 h

COC(=O)c1c(CBr)oc2cc(C(C)=O)c(O)cc12 [Compound 2d, Methyl 6-acetyl-2-(bromomethyl)-5-hydroxybenzofuran-3-carboxylate]
IC50 ([1]; Homo sapiens, HeLa, 48 h incubation with cells, MTT): 35 µM
reduction of viability of HeLa cells [1, 6]: more than 50%
reduction of viability of K562 cells (K562 (leukemia) cells): more than 50%
IC50 (MOLT-4 (leukemia) cells; Homo sapiens, MOLT-4, 48 h incubation with cells, MTT): 35 µM
reduction of viability of MOLT-4 cells (MOLT-4 (leukemia) cells; [6]): more than 50%
IC50 ([2]; Homo sapiens, HUVEC, 48 h incubation with cells, MTT): 30 µM
cytotoxicity against human normal endothelial cells [2, 6]: cytotoxic
increase in the activity of caspase 3/7 [3]: about two-fold
inhibition of digestion of plasmid DNA with BamH1 / interaction with DNA [4]: to some extent, interact with DNA
decrease of cytotoxicity against human cancer cells compared to the lead compounds VIII-X (cancer cell lines): 5–10 folds

COC(=O)c1c(C)oc2cc(C(=O)C(Br)Br)c(O)c(Br)c12 [IX]
toxicity towards endothelial cells (HUVEC) [5]: non-toxic
IC50 towards cancer cells (cancer cells): in a few µM range

COc1cc2c(CBr)c(C(C)=O)oc2c(C(C)=O)c1OC [VIII]
IC50 (K562 leukemic cell line): 5 µM
IC50 (HL-60 leukemic cell line): 0.1 µM
IC50 (HeLa cancer cells): > 1000 µM
IC50 [5]: > 1000 µM

COC(=O)c1c(C)oc2cc(C(=O)C(Br)Br)c(OC)cc12 [X, methyl 6-(dibromoacetyl)-5-methoxy-2-methylbenzofuran-3-carboxylate]
toxicity towards endothelial cells (HUVEC) [5]: non-toxic
IC50 towards cancer cells (cancer cells): in a few µM range
